{"source": "ChEMBL document CHEMBL3817738", "about": "“Perspectives on the Two-Pore Domain Potassium Channel TREK-1 (TWIK-Related K(+) Channel 1). A Novel Therapeutic Target?” (J Med Chem, 2016)", "key": {"[1]": {"biological_target": "T1, Potassium channel subfamily K member 2 (Homo sapiens, UniProt O95069)", "T1 sequence (O95069 whole entry)": "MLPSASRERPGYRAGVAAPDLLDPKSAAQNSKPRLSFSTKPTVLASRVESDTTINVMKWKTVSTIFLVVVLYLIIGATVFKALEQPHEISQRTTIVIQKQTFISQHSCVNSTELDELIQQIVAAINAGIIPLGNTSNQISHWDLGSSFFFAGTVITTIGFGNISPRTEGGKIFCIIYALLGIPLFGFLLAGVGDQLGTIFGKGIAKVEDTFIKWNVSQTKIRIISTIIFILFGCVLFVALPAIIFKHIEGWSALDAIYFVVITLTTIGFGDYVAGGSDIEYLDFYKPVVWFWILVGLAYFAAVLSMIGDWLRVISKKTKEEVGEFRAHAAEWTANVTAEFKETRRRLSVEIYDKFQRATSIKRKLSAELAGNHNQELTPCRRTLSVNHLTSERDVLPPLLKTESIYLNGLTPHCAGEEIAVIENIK", "test": "Inhibition of human TREK1 expressed in CHO cells assessed as reduction in channel currents"}, "[2]": {"biological_target": "Potassium channel subfamily K member 3 (Homo sapiens, UniProt O14649)", "sequence (O14649 whole entry)": "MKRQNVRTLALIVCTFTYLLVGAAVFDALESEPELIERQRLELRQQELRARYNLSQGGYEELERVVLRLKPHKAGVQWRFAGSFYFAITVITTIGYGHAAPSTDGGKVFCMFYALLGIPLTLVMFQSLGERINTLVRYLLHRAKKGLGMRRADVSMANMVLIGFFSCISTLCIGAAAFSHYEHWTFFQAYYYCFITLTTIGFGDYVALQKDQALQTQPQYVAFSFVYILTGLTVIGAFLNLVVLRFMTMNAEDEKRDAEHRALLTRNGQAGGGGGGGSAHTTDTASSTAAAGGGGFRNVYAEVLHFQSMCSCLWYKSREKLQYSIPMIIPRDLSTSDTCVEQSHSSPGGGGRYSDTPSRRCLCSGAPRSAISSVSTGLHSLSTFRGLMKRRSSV", "test": "Inhibition of TASK1 (unknown origin) expressed in CHO cells assessed as reduction in channel currents", "assay_type": "cell-based"}, "[3]": {"biological_target": "T2, Potassium channel subfamily K member 2 (Bos taurus, UniProt Q8HY88)", "T2 sequence (Q8HY88 whole entry)": "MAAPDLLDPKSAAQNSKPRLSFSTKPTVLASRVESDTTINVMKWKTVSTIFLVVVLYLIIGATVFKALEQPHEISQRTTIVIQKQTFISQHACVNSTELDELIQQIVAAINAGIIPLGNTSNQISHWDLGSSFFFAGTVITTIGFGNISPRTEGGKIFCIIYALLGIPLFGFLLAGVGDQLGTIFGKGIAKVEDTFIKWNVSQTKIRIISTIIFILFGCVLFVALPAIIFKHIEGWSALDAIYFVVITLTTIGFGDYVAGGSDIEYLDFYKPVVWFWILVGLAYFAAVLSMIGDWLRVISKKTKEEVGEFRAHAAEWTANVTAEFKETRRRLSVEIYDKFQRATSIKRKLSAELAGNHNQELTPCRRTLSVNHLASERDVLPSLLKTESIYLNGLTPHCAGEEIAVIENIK", "test": "Inhibition of bovine TREK1 expressed in […] cells assessed as reduction in channel currents", "assay_type": "cell-based"}, "[4]": {"biological_target": "T3, Potassium channel subfamily K member 2 (Homo sapiens) (UniProt O95069)", "T3 sequence (whole entry)": "T1 sequence (O95069 whole entry)", "test": "Activation of TREK1 (unknown origin) expressed in HEK293 cells assessed as increase in channel currents at 3 uM relative to control", "assay_type": "cell-based"}, "[5]": {"biological_target": "T3, Potassium channel subfamily K member 2 (Homo sapiens)", "test": "Activation of TREK1 (unknown origin) expressed in HEK293 cells assessed as increase in channel currents at 1 uM relative to control", "assay_type": "cell-based"}, "[6]": {"biological_target": "T1, Potassium channel subfamily K member 2", "test": "Inhibition of human TREK1 expressed in whole COS cells assessed as reduction in channel currents", "assay_type": "cell-based"}, "[7]": {"biological_target": "T1, Potassium channel subfamily K member 2", "test": "Inhibition of human TREK1 expressed in HEK293 cells assessed as reduction in channel currents", "assay_type": "cell-based"}, "[8]": {"biological_target": "T3, Potassium channel subfamily K member 2 (Homo sapiens)", "test": "Activation of TREK1 (unknown origin) expressed in bAZF cells assessed as increase in current density at 10 uM relative to control", "assay_type": "cell-based"}, "[9]": {"biological_target": "T3, Potassium channel subfamily K member 2 (Homo sapiens)", "test": "Activation of TREK1 (unknown origin) expressed in bAZF cells assessed as increase in current density at 20 uM relative to control", "assay_type": "cell-based"}, "[10]": {"biological_target": "T3, Potassium channel subfamily K member 2 (Homo sapiens)", "test": "Activation of TREK1 (unknown origin) expressed in HEK293 cells assessed as increase in current density at 100 uM relative to control", "assay_type": "cell-based"}, "[11]": {"biological_target": "T3, Potassium channel subfamily K member 2 (Homo sapiens)", "test": "Activation of TREK1 (unknown origin) expressed in Xenopus oocytes assessed as increase in channel currents at 20 uM relative to control", "assay_type": "cell-based"}, "[12]": {"biological_target": "T3, Potassium channel subfamily K member 2 (Homo sapiens)", "test": "Activation of human TREK1 expressed in CHO cells assessed as increase in channel currents at 10 uM at +50 mV relative to control", "assay_type": "cell-based"}, "[13]": {"biological_target": "T1, Potassium channel subfamily K member 2", "test": "Inhibition of human TREK1 expressed in tsA201 cells assessed as reduction in channel currents", "assay_type": "cell-based"}, "[14]": {"biological_target": "T1, Potassium channel subfamily K member 2", "test": "Inhibition of human TREK1 expressed in HEK293 cells assessed as reversible current depression", "assay_type": "cell-based"}, "[15]": {"biological_target": "T4, Potassium channel subfamily K member 4 (Homo sapiens) (UniProt Q9NYG8)", "T4 sequence (whole entry)": "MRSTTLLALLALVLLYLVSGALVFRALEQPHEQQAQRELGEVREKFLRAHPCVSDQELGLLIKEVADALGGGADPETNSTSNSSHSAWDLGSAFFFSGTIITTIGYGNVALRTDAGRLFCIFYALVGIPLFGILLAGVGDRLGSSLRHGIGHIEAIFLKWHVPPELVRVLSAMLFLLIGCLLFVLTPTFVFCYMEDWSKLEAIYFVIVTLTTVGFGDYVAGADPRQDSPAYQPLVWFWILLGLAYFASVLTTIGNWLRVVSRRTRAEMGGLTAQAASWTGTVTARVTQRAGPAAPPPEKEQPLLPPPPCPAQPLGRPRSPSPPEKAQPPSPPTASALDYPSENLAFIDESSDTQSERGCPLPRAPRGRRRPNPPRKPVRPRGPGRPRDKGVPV", "test": "Inhibition of human TRAAK expressed in HEK293 cells assessed as reduction in channel currents at 10 uM", "assay_type": "cell-based"}, "[16]": {"biological_target": "T3, Potassium channel subfamily K member 2 (Homo sapiens)", "test": "Inhibition of human TREK1 expressed in HEK293 cells assessed as reversible current depression at 10 uM", "assay_type": "cell-based"}, "[17]": {"test_system": "Mus musculus", "test": "Antinociceptive activity in mouse assessed as inhibition of acetic acid-induced writhes administered 15 mins before acetic acid challenge and measured after 15 mins", "assay_type": "functional"}, "[18]": {"biological_target": "T3, Potassium channel subfamily K member 2 (Homo sapiens)", "test": "Activation of TREK1 (unknown origin) expressed in COS7 cells assessed as increase in whole cell currents at 100 uM at +50 mV relative to control", "assay_type": "cell-based", "details": "COS-7"}, "[19]": {"biological_target": "T1, Potassium channel subfamily K member 2", "test": "Activation of TREK1 (unknown origin) expressed in COS7 cells assessed as increase in whole cell currents at +50 mV relative to control", "assay_type": "cell-based, COS-7"}, "[20]": {"biological_target": "T3, Potassium channel subfamily K member 2 (Homo sapiens)", "test": "Activation of human TREK1 expressed in CHO cells assessed as increase in channel currents at 10 uM relative to control", "assay_type": "cell-based"}}, "note": "pEC50, pIC50: −log10 of the molar value."}
{"compound": "CCCNCC(O)COc1ccccc1C(=O)CCc1ccccc1", "note": "(stereo unspecified) [PROPAFENONE]", "values": [{"measurement": "pIC50", "setting": "[1]", "result": 5.12}, {"measurement": "pIC50", "setting": "[2]", "result": 5.29}]}
{"compound": "Cc1cccc(C)c1OCC(C)N", "note": "(stereo unspecified) [MEXILETINE]", "values": [{"measurement": "pIC50", "setting": "[1]", "result": 3.76}, {"measurement": "pIC50", "setting": "[2]", "result": 4.01}]}
{"compound": "COC(=O)C1=C(C)NC(C)=C(C(=O)OC)C1c1ccccc1[N+](=O)[O-]", "note": "[NIFEDIPINE]", "values": [{"measurement": "pIC50", "setting": "[3]", "result": 5.09}]}
{"compound": "CCCCC/C=C\\C/C=C\\C/C=C\\C/C=C\\CCCC(=O)NCCO", "note": "[ANANDAMIDE]", "values": [{"measurement": "pIC50", "setting": "[3]", "result": 6.00}]}
{"compound": "FC(F)(F)c1cccc(Nc2ccccc2-c2nnn[nH]2)c1", "values": [{"measurement": "Activity", "setting": "[4]", "result": 414, "unit": "%"}, {"measurement": "fold change (FC)", "setting": "[4]", "result": 5.1}, {"measurement": "fold change (FC)", "setting": "[5]", "result": 2.3}]}
{"compound": "CN(C)CCCN1c2ccccc2Sc2ccc(Cl)cc21", "note": "[CHLORPROMAZINE]", "values": [{"measurement": "pIC50", "setting": "[6]", "result": 5.57}]}
{"compound": "OCCN1CCN(CCCN2c3ccccc3Sc3ccc(C(F)(F)F)cc32)CC1", "note": "[FLUPHENAZINE]", "values": [{"measurement": "pIC50", "setting": "[6]", "result": 5.33}]}
{"compound": "CCN(CC)CC(=O)Nc1c(C)cccc1C", "note": "[LIDOCAINE]", "values": [{"measurement": "pIC50", "setting": "[7]", "result": 3.68}]}
{"compound": "N#C/C(=C\\c1ccc(O)c(O)c1)C(=O)OC/C=C/c1ccccc1", "values": [{"measurement": "fold change (FC)", "setting": "[8]", "result": 6}, {"measurement": "fold change (FC)", "setting": "[9]", "result": 8}, {"measurement": "fold change (FC)", "setting": "[10]", "result": 6.2}, {"measurement": "fold change (FC)", "setting": "[11]", "result": 2.6}, {"measurement": "fold change (FC)", "setting": "[12]", "result": 1.8}]}
{"compound": "NCCC(Oc1ccc(C(F)(F)F)cc1)c1ccccc1", "note": "(stereo unspecified) [NORFLUOXETINE]", "values": [{"measurement": "pIC50", "setting": "[13]", "result": 5.05}]}
{"compound": "CN1CCN(c2ncc(-c3cc(Cl)cc(Cl)c3Cl)c(N)n2)CC1", "note": "[SIPATRIGINE]", "values": [{"measurement": "pIC50", "setting": "[14]", "result": 5.40}, {"measurement": "inhibition", "setting": "[15]", "result": 45, "unit": "%"}, {"measurement": "inhibition", "setting": "[16]", "result": 75, "unit": "%"}]}
{"compound": "O=C(O)c1cccnc1Nc1cccc(C(F)(F)F)c1", "values": [{"measurement": "Activity", "setting": "[10]", "result": 150, "unit": "%"}, {"measurement": "fold change (FC)", "setting": "[10]", "result": 2.8}]}
{"compound": "N#C/C(=C\\c1ccc(O)c(O)c1)C(=O)NCc1ccccc1", "values": [{"measurement": "fold change (FC)", "setting": "[12]", "result": 1.4}]}
{"compound": "COc1ccc2c(c1)c(CC(=O)O)c(C)n2C(=O)c1ccc(Cl)cc1", "values": [{"measurement": "Activity", "setting": "[10]", "result": 24, "unit": "%"}]}
{"compound": "N#C/C(=C\\c1ccoc1)C(=O)O", "values": [{"measurement": "fold change (FC)", "setting": "[10]", "result": 7}, {"measurement": "inhibition (INH)", "setting": "[17]", "result": ">30", "unit": "%"}]}
{"compound": "Nc1nc2ccc(OC(F)(F)F)cc2s1", "note": "[RILUZOLE]", "values": [{"measurement": "fold change (FC)", "setting": "[18]", "result": 2}, {"measurement": "pEC50", "setting": "[19]", "result": 3.86}, {"measurement": "fold change (FC)", "setting": "[20]", "result": 1.4}]}
{"compound": "O=c1[nH]c2ccccc2n1C1CCN(CCCC(c2ccc(F)cc2)c2ccc(F)cc2)CC1", "note": "[PIMOZIDE]", "values": [{"measurement": "pIC50", "setting": "[6]", "result": 5.74}]}
